Measured values reported in patent US20230295200A1 (REGENTS OF THE UNIVERSITY OF MICHIGAN, priority 2022, published 2023).

These compounds were tested against T1, STAT6 protein (Homo sapiens, UniProt P42226) (assay: Fluorescence polarization (FP) binding assay, STAT6). Conditions: FP competition, 5 nM fluorescein-labeled tracer, 200 nM protein, PBS pH7.4; read-out: Binding STAT6.
T1 sequence (P42226 1-847): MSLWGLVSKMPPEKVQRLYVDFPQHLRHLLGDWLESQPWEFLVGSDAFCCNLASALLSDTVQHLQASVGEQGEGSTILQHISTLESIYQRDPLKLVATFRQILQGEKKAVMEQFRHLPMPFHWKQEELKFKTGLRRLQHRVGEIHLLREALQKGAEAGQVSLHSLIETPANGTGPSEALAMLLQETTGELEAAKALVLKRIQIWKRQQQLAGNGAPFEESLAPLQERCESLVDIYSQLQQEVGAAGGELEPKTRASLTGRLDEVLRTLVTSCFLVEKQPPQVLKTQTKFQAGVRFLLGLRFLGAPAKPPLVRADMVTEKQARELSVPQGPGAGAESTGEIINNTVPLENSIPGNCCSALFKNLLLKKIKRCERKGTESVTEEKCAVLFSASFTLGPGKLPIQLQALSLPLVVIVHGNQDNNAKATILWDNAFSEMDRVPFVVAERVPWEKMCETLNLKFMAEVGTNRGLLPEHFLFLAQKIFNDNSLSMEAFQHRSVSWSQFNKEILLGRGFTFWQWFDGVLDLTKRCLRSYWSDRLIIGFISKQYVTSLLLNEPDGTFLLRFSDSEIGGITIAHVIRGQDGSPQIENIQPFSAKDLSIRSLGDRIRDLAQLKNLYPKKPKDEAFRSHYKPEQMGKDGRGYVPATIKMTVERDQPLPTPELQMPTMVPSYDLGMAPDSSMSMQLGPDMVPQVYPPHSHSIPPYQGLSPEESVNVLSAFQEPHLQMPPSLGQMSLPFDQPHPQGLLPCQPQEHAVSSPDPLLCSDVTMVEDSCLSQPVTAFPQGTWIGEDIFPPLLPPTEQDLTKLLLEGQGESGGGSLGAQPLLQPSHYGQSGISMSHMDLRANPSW
Protocol: Evaluation of the activity of the inhibitors may be accomplished by fluorescence polarization (FP) experiments. A representative general protocol is the following:
Fluorescence polarization (FP) experiments are performed in black round-bottom plates using the CLARIOstar microplate reader. To each well, fluorescein-labeled tracer and STAT5 or STAT6 protein are added in assay buffer. […] The inhibition constants are determined as the concentration of the STAT5 or STAT6 at which 50% of the ligand is bound.
Fluorescence polarization (FP) experiments were performed in 96-well, black round-bottom plates (Microfluor 2, Fisher Scientific) using the CLARIOstar microplate reader (BMG Labtech). To each well, 5 nM of fluoresceinlabeled tracer and 200 nM of STAT5 and/or STAT6 protein were added to a final volume of 100 μl in the assay buffer (PBS pH7.4+0.01% BGG+0.01% Tween-20, 2 mM DTT). The plate was mixed on a shaker for 15 m and incubated at room temperature for 1 h to reach equilibrium. […] All experimental data were analyzed using Prism 8.0 software (GraphPad Software), and the inhibition constants were determined by nonlinear curve fitting as the concentration of the STAT5 and/or STAT6 at which 50% of the ligand is bound.

`CCOC(=O)CO[C@H]1C[C@@H](C(=O)N(CCC(=O)O)c2ccc(Br)cc2)N(C(=O)[C@@H](NC(=O)c2cc3cc(C(F)(F)P(=O)(O)O)ccc3s2)C(C)(C)C)C1` [Compound 47, 3-((2S,4S)-N-(4-bromophenyl)-1-((S)-2-(5-(difluoro(phosphono)methyl)benzo [b]thiophene-2-carboxamido)-3,3-dimethylbutanoyl)-4-(2-ethoxy-2-oxoethoxy)pyrrolidine-2-carboxamido)propanoic acid] and `CCOC(=O)CO[C@@H]1C[C@@H](C(=O)N(CCC(=O)O)c2ccc(Br)cc2)N(C(=O)[C@@H](NC(=O)c2cc3cc(C(F)(F)P(=O)(O)O)ccc3s2)C(C)(C)C)C1` [Compound 48, 3-((2S,4R)-N-(4-bromophenyl)-1-((S)-2-(5-(difluoro(phosphono)methyl)benzo[b]thiophene-2-carboxamido)-3,3-dimethylbutanoyl)-4-(2-ethoxy-2-oxoethoxy)pyrrolidine-2-carboxamido)propanoic acid] fall in the same range of Ki: 100 to 1000 nM for the first, 100 to 1000 nM for the second.

`CC(C)(C)[C@H](NC(=O)c1cc2cc(C(F)(F)P(=O)(O)O)ccc2s1)C(=O)N1C[C@@H](OCC(=O)O)C[C@H]1C(=O)N(CCC(=O)O)c1ccc(Br)cc1` [Compound 49, 3-((2S,4S)-N-(4-bromophenyl)-4-(carboxymethoxy)-1-((S)-2-(5-(difluoro(phosphono)methyl)benzo[b]thiophene-2-carboxamido)-3,3-dimethylbutanoyl)pyrrolidine-2-carboxamido)propanoic acid] and `CC(C)(C)[C@H](NC(=O)c1cc2cc(C(F)(F)P(=O)(O)O)ccc2s1)C(=O)N1C[C@H](OCC(=O)O)C[C@H]1C(=O)N(CCC(=O)O)c1ccc(Br)cc1` [Compound 50, 3-((2S,4R)-N-(4-bromophenyl)-4-(carboxymethoxy)-1-((S)-2-(5-(difluoro(phosphono)methyl)benzo[b]thiophene-2-carboxamido)-3,3-dimethylbutanoyl)pyrrolidine-2-carboxamido)propanoic acid] fall in the same range of Ki: 100 to 1000 nM for the first, 100 to 1000 nM for the second.

`CNC(=O)CCN(C(=O)[C@@H]1C[C@H](OCC(=O)NC)CN1C(=O)[C@@H](NC(=O)c1cc2cc(C(F)(F)P(=O)(O)O)ccc2s1)C(C)(C)C)c1ccc(Br)cc1` [Compound 51, ((2-(((S)-1-((2S,4S)-2-((4-bromophenyl)(3-(methylamino)-3-oxopropyl)carbamoyl)-4-(2-(methylamino)-2-oxoethoxy)pyrrolidin-1-yl)-3,3-dimethyl-1-oxobutan-2-yl)carbamoyl)benzo[b]thiophen-5-yl)difluoromethyl)phosphonic acid] and `CNC(=O)CCN(C(=O)[C@@H]1C[C@@H](OCC(=O)NC)CN1C(=O)[C@@H](NC(=O)c1cc2cc(C(F)(F)P(=O)(O)O)ccc2s1)C(C)(C)C)c1ccc(Br)cc1` [Compound 52, ((2-(((S)-1-((2S,4R)-2-((4-bromophenyl)(3-(methylamino)-3-oxopropyl)carbamoyl)-4-(2-(methylamino)-2-oxoethoxy)pyrrolidin-1-yl)-3,3-dimethyl-1-oxobutan-2-yl)carbamoyl)benzo[b]thiophen-5-yl)difluoromethyl)phosphonic acid] fall in the same range of Ki: 100 to 1000 nM for the first, 100 to 1000 nM for the second.

First: CCOC(=O)CO[C@H]1C[C@@H](C(=O)Nc2ccc(I)cc2)N(C(=O)[C@@H](NC(=O)c2cc3cc(C(F)(F)P(=O)(O)O)ccc3s2)C(C)(C)C)C1 [Compound 53, ((2-(((S)-1-((2S,4S)-4-(2-ethoxy-2-oxoethoxy)-2-((4-iodophenyl)carbamoyl)pyrrolidin-1-yl)-3,3-dimethyl-1-oxobutan-2-yl)carbamoyl)benzo[b]thiophen-5-yl)difluoromethyl)phosphonic acid]
Second: CCOC(=O)CO[C@H]1C[C@@H](C(=O)N(C)c2ccc(Br)cc2)N(C(=O)[C@@H](NC(=O)c2cc3cc(C(F)(F)P(=O)(O)O)ccc3s2)C(C)(C)C)C1 [Compound 54, ((2-(((S)-1-((2S,4S)-2-((4-bromophenyl)(methyl)carbamoyl)-4-(2-ethoxy-2-oxoethoxy)pyrrolidin-1-yl)-3,3-dimethyl-1-oxobutan-2-yl)carbamoyl)benzo[b]thiophen-5-yl)difluoromethyl)phosphonic acid]
The Ki of the first is higher: 1000 to 10000 nM for the first, 100 to 1000 nM for the second.

`CCCN(C(=O)[C@@H]1C[C@H](OCC(=O)OCC)CN1C(=O)[C@@H](NC(=O)c1cc2cc(C(F)(F)P(=O)(O)O)ccc2s1)C(C)(C)C)c1ccc(Br)cc1` [Compound 55, ((2-(((S)-1-((2S,4S)-2-((4-bromophenyl)(propyl)carbamoyl)-4-(2-ethoxy-2-oxoethoxy)pyrrolidin-1-yl)-3,3-dimethyl-1-oxobutan-2-yl)carbamoyl)benzo[b]thiophen-5-yl)difluoromethyl)phosphonic acid] and `CCOC(=O)CO[C@H]1C[C@@H](C(=O)N(CCC(=O)NC)c2ccc(Br)cc2)N(C(=O)[C@@H](NC(=O)c2cc3cc(C(F)(F)P(=O)(O)O)ccc3s2)C(C)(C)C)C1` [Compound 56, ((2-(((S)-1-((2S,4S)-2-((4-bromophenyl)(3-(methylamino)-3-oxopropyl)carbamoyl)-4-(2-ethoxy-2-oxoethoxy)pyrrolidin-1-yl)-3,3-dimethyl-1-oxobutan-2-yl)carbamoyl)benzo[b]thiophen-5-yl)difluoromethyl)phosphonic acid] fall in the same range of Ki: 100 to 1000 nM for the first, 100 to 1000 nM for the second.

`CCOC(=O)CO[C@H]1C[C@@H](C(=O)N(CCC(=O)N(C)C)c2ccc(Br)cc2)N(C(=O)[C@@H](NC(=O)c2cc3cc(C(F)(F)P(=O)(O)O)ccc3s2)C(C)(C)C)C1` [Compound 57, ((2-(((S)-1-((2S,4S)-2-((4-bromophenyl)(3-(dimethylamino)-3-oxopropyl)carbamoyl)-4-(2-ethoxy-2-oxoethoxy)pyrrolidin-1-yl)-3,3-dimethyl-1-oxobutan-2-yl)carbamoyl)benzo[b]thiophen-5-yl)difluoromethyl)phosphonic acid] and `CC(C)(C)[C@H](NC(=O)c1cc2cc(C(F)(F)P(=O)(O)O)ccc2s1)C(=O)N1Cc2ccccc2C[C@H]1C(=O)N1CCOC(Cc2ccccc2)C1` (stereo partly drawn) [Compound 221, ((2-(((2S)-1-((3S)-3-(2-benzylmorpholine-4-carbonyl)-3,4-dihydroisoquinolin-2(1H)-yl)-3,3-dimethyl-1-oxobutan-2-yl)carbamoyl)benzo[b]thiophen-5-yl)difluoromethyl)phosphonic acid] fall in the same range of Ki: 100 to 1000 nM for the first, 100 to 1000 nM for the second.

Compared with `CC(C)(C)[C@H](NC(=O)c1cc2cc(C(F)(F)P(=O)(O)O)ccc2s1)C(=O)N1Cc2ccccc2C[C@H]1C(=O)N1CCOC(c2cccnc2)C1` (stereo partly drawn) [Compound 217, ((2-(((2S)-3,3-dimethyl-1-oxo-1-((3S)-3-(2-(pyridin-3-yl)morpholine-4-carbonyl)-3,4-dihydroisoquinolin-2(1H)-yl)butan-2-yl)carbamoyl)benzo[b]thiophen-5-yl)difluoromethyl)phosphonic acid], `CC(C)(C)[C@H](NC(=O)c1cc2cc(C(F)(F)P(=O)(O)O)ccc2s1)C(=O)N1Cc2ccccc2C[C@H]1C(=O)N1CCOC(c2ccncc2)C1` (stereo partly drawn) [Compound 218, ((2-(((2S)-3,3-dimethyl-1-oxo-1-((3S)-3-(2-(pyridin-4-yl)morpholine-4-carbonyl)-3,4-dihydroisoquinolin-2(1H)-yl)butan-2-yl)carbamoyl)benzo[b]thiophen-5-yl)difluoromethyl)phosphonic acid] is higher in Ki: under 100 nM for the first, 100 to 1000 nM for the second.

First: CC(C)(C)[C@H](NC(=O)c1cc2cc(C(F)(F)P(=O)(O)O)ccc2s1)C(=O)N1Cc2ccccc2C[C@H]1C(=O)N1CCOC(c2nccs2)C1 (stereo partly drawn) [Compound 219, ((2-(((2S)-3,3-dimethyl-1-oxo-1-((3S)-3-(2-(thiazol-2-yl)morpholine-4-carbonyl)-3,4-dihydroisoquinolin-2(1H)-yl)butan-2-yl)carbamoyl)benzo[b]thiophen-5-yl)difluoromethyl)phosphonic acid]
Second: CC(C)(C)[C@H](NC(=O)c1cc2cc(C(F)(F)P(=O)(O)O)ccc2s1)C(=O)N1Cc2ccccc2C[C@H]1C(=O)N1CCCOC(c2ccccc2)C1 (stereo partly drawn) [Compound 220, ((2-(((2S)-3,3-dimethyl-1-oxo-1-((3S)-3-(2-phenyl-1,4-oxazepane-4-carbonyl)-3,4-dihydroisoquinolin-2(1H)-yl)butan-2-yl)carbamoyl)benzo[b]thiophen-5-yl)difluoromethyl)phosphonic acid]
The Ki of the first is lower: under 100 nM for the first, 100 to 1000 nM for the second. The first binds more tightly here.
